Results taken from DBAASP.
Values after ≈ are worked out from the molar mass of the structure shown. Values joined by “and” are separate entries in the source; they are usually repeats but may differ in a detail not shown here. Identical values can stand only once.

Experiments:
Assay in all cases: ≥ marks a high value that may be exact or a test limit, other limits are often not marked, values filed in µg/mL are converted to µM
[1] = test system: Klebsiella pneumoniae ATCC 43816
[2] = test system: Escherichia coli NCTC 10418
[3] = test system: Staphylococcus aureus NCTC 10788
[4] = test system: Candida albicans NCYC 1467
[5] = test system: Staphylococcus aureus NCTC 12493
[6] = test system: Enterococcus faecalis NCTC 12697
[7] = test system: Pseudomonas aeruginosa ATCC 27853
[8] = test system: Staphylococcus aureus BCRC 10780
Escherichia coli W160-37 = test system: Escherichia coli W160-37
[9] = test system: Staphylococcus aureus ATCC 8530
[10] = test system: Pseudomonas aeruginosa ATCC 9027
[11] = test system: Bacillus cereus ATCC 11778
[12] = test system: Escherichia coli ATCC 35218
[13] = test system: Staphylococcus aureus ATCC 25923
Escherichia coli BW25113 = test system: Escherichia coli BW25113
[14] = test system: Candida parapsilosis CGMCC 2.3989
[15] = test system: Staphylococcus aureus ATCC 29213
[16] = test system: Candida tropicalis CGMCC 2.1975
[17] = test system: Candida krusei CGMCC 2.1857
[18] = test system: Staphylococcus epidermidis ATCC 12228
[19] = test system: Salmonella enterica subsp. enterica serovar Pullorum ATCC 7913
Candida albicans = test system: Candida albicans
[20] = test system: Salmonella enterica subsp. enterica serovar Typhimurium ATCC 14028
[21] = test system: Staphylococcus aureus ATCC 43300
Escherichia coli 1005 = test system: Escherichia coli 1005
[22] = test system: Escherichia coli ATCC 25922
[23] = test system: Bacillus subtilis ATCC 6633
[24] = test system: Pseudomonas aeruginosa ATCC BAA-427

With CC[C@H](C)[C@H](NC(=O)[C@H](C)NC(=O)[C@H](C)NC(=O)[C@@H]1CCCN1C(=O)[C@@H](NC(=O)[C@H](CC(C)C)NC(=O)[C@H](CO)NC(=O)[C@H](CC(C)C)NC(=O)[C@@H](N)Cc1ccccc1)[C@@H](C)CC)C(=O)N[C@@H](CO)C(=O)N[C@@H](C)C(=O)N[C@H](C(=O)N[C@@H](CO)C(=O)N[C@@H](C)C(=O)N[C@@H](CC(C)C)C(=O)N[C@@H](C)C(=O)N[C@@H](CC(N)=O)C(=O)N[C@@H](Cc1cnc[nH]1)C(=O)N[C@@H](Cc1ccccc1)C(N)=O)C(C)C [FLSLIPAAISAVSALANHF] the MIC [1] was no less than 512 µM, the MIC [2] was no less than 264 µM and the MIC [3] was no less than 33 µM. The MIC [4] was no less than 132 µM, the MIC [5] was no less than 33 µM and the MIC [6] was no less than 264 µM. It also gave an MIC [7] greater than 512 µM.

In the case of CC[C@H](C)[C@H](NC(=O)[C@H](CCCCN)NC(=O)[C@@H]1CCCN1C(=O)[C@@H](NC(=O)[C@H](CC(C)C)NC(=O)[C@H](C)NC(=O)[C@H](Cc1ccccc1)NC(=O)[C@H](Cc1ccccc1)NC(=O)CNC(C)=O)[C@@H](C)CC)C(N)=O [GFFALIPKI], the MIC [8] is reported as no less than 99.5 µM.

CC[C@H](C)[C@@H]1NC(=O)[C@H](C)NC(=O)[C@@H](NC(=O)[C@H](Cc2ccccc2)NC(=O)[C@@H](NC(=O)[C@H](CCCCN)NC(=O)[C@@H]2CCCN2C(=O)[C@H](CC(C)C)NC(=O)[C@H](Cc2ccccc2)NC(=O)[C@H](CCCCN)NC(=O)[C@@H](N)CCCCN)[C@@H](C)CC)CSSC[C@@H](C(=O)O)NC(=O)[C@H](CCCCN)NC(=O)[C@H](CCCCN)NC(=O)[C@H]([C@@H](C)O)NC1=O [KKFLPKIFCAITKKC] gave an MIC [1] of no less than 128 µM, an MIC [2] of 16 µM (≈ 28.3 µg/mL) and an MIC [3] of 8 µM (≈ 14.1 µg/mL). For the same molecule, the MIC [4] was no less than 32 µM, the MIC [5] was 16 µM (≈ 28.3 µg/mL) and the MIC [6] was no less than 512 µM. It also gave an MIC [7] of 256 µM (≈ 452 µg/mL).

CC[C@H](C)[C@H](NC(=O)[C@H](CC(C)C)NC(=O)[C@H](CCC(N)=O)NC(=O)[C@H](CCCCN)NC(C)=O)C(=O)N[C@@H](CCCN=C(N)N)C(=O)N[C@@H](Cc1ccccc1)C(=O)N[C@@H](CC(C)C)C(=O)N[C@@H](CCCCN)C(=O)N[C@@H](CCCN=C(N)N)C(=O)N[C@@H](CC(C)C)C(=O)N[C@@H](CC(=O)O)C(=O)N[C@@H](CCCN=C(N)N)C(=O)N[C@@H](CC(N)=O)C(=O)N[C@@H](CC(C)C)C(=O)N[C@@H](Cc1c[nH]c2ccccc12)C(=O)NCC(=O)N[C@@H](CC(C)C)C(=O)N[C@@H](C)C(N)=O [KQLIRFLKRLDRNLWGLA] showed an MIC (Escherichia coli W160-37) of 4.5 µM (≈ 10.3 µg/mL) and an MIC [9] of 11 µM (≈ 25.1 µg/mL).

With CC(C)C[C@H](NC(=O)[C@@H](NC(=O)[C@H](CCCCN)NC(=O)[C@H](CCCCN)NC(=O)[C@@H](N)CC(C)C)C(C)C)C(=O)N[C@@H](CCCCN)C(=O)N[C@@H](C)C(=O)N[C@@H](C)C(=O)N[C@@H](C)C(N)=O [LKKVLKAAA] the MIC [10] was greater than 50 µM, the MIC [11] was no less than 50 µM and the MIC [12] was no less than 50 µM. The MIC [13] was greater than 50 µM.

Work on CC[C@H](C)[C@H](NC(=O)[C@@H]1CCCN1C(=O)[C@H](Cc1ccccc1)NC(=O)[C@H](CCCN=C(N)N)NC(=O)[C@H](Cc1ccccc1)NC(=O)[C@@H](N)CCCN=C(N)N)C(=O)N[C@@H](CCCN=C(N)N)C(=O)N[C@@H](CCCN=C(N)N)C(=O)N1CCC[C@H]1C(=O)N1CCC[C@H]1C(=O)N[C@H](C(=O)N[C@@H](CCCN=C(N)N)C(=O)N1CCC[C@H]1C(=O)N1CCC[C@H]1C(=O)N[C@@H](Cc1ccccc1)C(=O)N[C@@H](Cc1ccc(O)cc1)C(=O)N1CCC[C@H]1C(=O)O)[C@@H](C)CC [RFRFPIRRPPIRPPFYP] yielded an MIC (Escherichia coli BW25113) of 8 µM (≈ 17.7 µg/mL).

Work on CC[C@H](C)[C@H](NC(=O)[C@H](CCCN=C(N)N)NC(=O)[C@@H](NC(=O)[C@@H](NC(=O)[C@@H](NC(=O)[C@H](CCCN=C(N)N)NC(=O)[C@@H](NC(=O)[C@@H](N)CCCN=C(N)N)[C@@H](C)CC)[C@@H](C)CC)[C@@H](C)CC)[C@@H](C)CC)C(=O)N[C@@H](CCCN=C(N)N)C(N)=O [RIRIIIRIR] yielded an MIC [14] of 8 µM (≈ 9.66 µg/mL), an MIC [15] of 4 µM (≈ 4.83 µg/mL) and an MIC [16] of 2 µM (≈ 2.42 µg/mL). For the same molecule, the MIC [17] was 2 µM (≈ 2.42 µg/mL), the MIC [18] was 4 µM (≈ 4.83 µg/mL) and the MIC [19] was 4 µM (≈ 4.83 µg/mL). The MIC (Candida albicans) was 2 µM (≈ 2.42 µg/mL), the MIC [20] was 4 µM (≈ 4.83 µg/mL) and the MIC [21] was 4 µM (≈ 4.83 µg/mL). For the same molecule, the MIC (Escherichia coli 1005) was 4 µM (≈ 4.83 µg/mL) and the MIC [13] was 4 µM (≈ 4.83 µg/mL).

For CC(C)C[C@H](NC(=O)[C@H](CCCN=C(N)N)NC(=O)[C@H](CC(C)C)NC(=O)[C@H](CC(C)C)NC(=O)[C@H](CC(C)C)NC(=O)[C@H](CCCN=C(N)N)NC(=O)[C@H](CC(C)C)NC(=O)[C@@H](N)CCCN=C(N)N)C(=O)N[C@@H](CCCN=C(N)N)C(N)=O [RLRLLLRLR], the MIC [14] was no less than 64 µM, the MIC [15] was 8 µM (≈ 9.66 µg/mL) and the MIC [16] was 2 µM (≈ 2.42 µg/mL). It also gave an MIC [17] of 8 µM (≈ 9.66 µg/mL), an MIC [18] of 4 µM (≈ 4.83 µg/mL) and an MIC [19] of 4 µM (≈ 4.83 µg/mL). For the same molecule, the MIC (Candida albicans) was 8 µM (≈ 9.66 µg/mL), the MIC [20] was 4 µM (≈ 4.83 µg/mL) and the MIC [21] was 4 µM (≈ 4.83 µg/mL). For the same molecule, the MIC (Escherichia coli 1005) was 4 µM (≈ 4.83 µg/mL), the MIC [22] was 4 µM and 8 µM and the MIC [13] was 8 µM (≈ 9.66 µg/mL).

In the case of NC(=O)[C@H](CCCN=C(N)N)NC(=O)[C@H](CCCN=C(N)N)NC(=O)[C@H](Cc1ccccc1)NC(=O)[C@H](CCCN=C(N)N)NC(=O)[C@H](Cc1ccccc1)NC(=O)[C@H](Cc1ccccc1)NC(=O)[C@H](Cc1ccccc1)NC(=O)[C@H](CCCN=C(N)N)NC(=O)[C@H](Cc1ccccc1)NC(=O)[C@H](CCCN=C(N)N)NC(=O)[C@@H](N)CCCN=C(N)N [RRFRFFFRFRR], the MIC [14] is reported as 16 µM (≈ 27 µg/mL), the MIC [15] is reported as 4 µM (≈ 6.76 µg/mL) and the MIC [16] is reported as 1 µM (≈ 1.69 µg/mL). The MIC [17] was 2 µM (≈ 3.38 µg/mL), the MIC [18] was 4 µM (≈ 6.76 µg/mL) and the MIC [19] was 2 µM (≈ 3.38 µg/mL). It also gave an MIC (Candida albicans) of 2.83 µM (≈ 4.78 µg/mL), an MIC [20] of 4 µM (≈ 6.76 µg/mL) and an MIC [21] of 4 µM (≈ 6.76 µg/mL). The MIC (Escherichia coli 1005) was 4 µM (≈ 6.76 µg/mL), the MIC [22] was 4 µM and > 2 µM and the MIC [13] was 8 µM (≈ 13.5 µg/mL).

In the case of CC(C)C[C@H](NC(=O)[C@H](CC(=O)O)NC(=O)[C@H](CC(C)C)NC(=O)[C@H](CCCCN)NC(=O)[C@H](CC(C)C)NC(=O)[C@H](CC(=O)O)NC(=O)[C@H](CC(C)C)NC(=O)[C@H](CCCCN)NC(=O)[C@H](CC(C)C)NC(=O)[C@H](CC(=O)O)NC(=O)[C@H](CC(C)C)NC(=O)[C@H](CCCCN)NC(=O)[C@H](CCCN=C(N)N)NC(=O)[C@H](CCCN=C(N)N)NC(=O)[C@@H](N)CCCN=C(N)N)C(=O)O [RRRKLDLKLDLKLDL], the MIC [23] is reported as 5 µM (≈ 9.48 µg/mL), the MIC [24] is reported as 6 µM (≈ 11.4 µg/mL) and the MIC [22] is reported as 6 µM (≈ 11.4 µg/mL). The MIC [13] was 5 µM (≈ 9.48 µg/mL).

CC[C@H](C)[C@H](NC(=O)[C@@H]1CCCN1C(=O)[C@H](CCCN=C(N)N)NC(=O)[C@H](CCCN=C(N)N)NC(=O)[C@H](Cc1c[nH]c2ccccc12)NC(=O)[C@@H](N)CCCN=C(N)N)C(=O)N[C@@H](CCCN=C(N)N)C(=O)N[C@@H](CCCN=C(N)N)C(=O)N1CCC[C@H]1C(=O)N1CCC[C@H]1C(=O)N[C@H](C(=O)N[C@@H](CCCN=C(N)N)C(=O)N1CCC[C@H]1C(=O)N1CCC[C@H]1C(=O)N[C@@H](Cc1ccccc1)C(=O)N[C@@H](Cc1ccc(O)cc1)C(=O)N[C@@H](CCCN=C(N)N)C(=O)O)[C@@H](C)CC [RWRRPIRRPPIRPPFYR] gave an MIC (Escherichia coli BW25113) of 8 µM (≈ 18.6 µg/mL).
